According to patent publication US20210069375A1, “Extracellular Matrices, Uses thereof, and Method for Making Extracellular Matrices” (Gemstone Biotherapeutics LLC, priority 2017, published 2021):

Experiment: reactivity of the drug under the curing conditions of the EMR
Format: physicochemical
Settings: mixed with dextramate, PEGDA and Irgacure, cured for 10 minutes
Method: Dextramate (24.2 mL of a 23.1 w/w % solution), PEGDA (16.3 mL of a 8.6 w/w % solution), Irgacure (14 mL of a 0.5 w/w % solution), and valsartan (2.82 mL or 1.41 mL of a 24.8 w/w % solution or 2.82 mL of a 1:10 dilution of a 24.8 w/w % solution) are mixed together. The mixture is cured for 10 minutes. After curing, 100 mL of dH2O is added to the cured product to create a swelled gel.

## CCCCC(=O)N(Cc1ccc(-c2ccccc2-c2nnn[nH]2)cc1)[C@H](C(=O)O)C(C)C [valsartan]
  reactivity under the curing conditions: does not exhibit reactivity
